# Measurements taken from ChEMBL document CHEMBL1201862, “PubChem BioAssay data set” (2004).
# The source made the active and inactive calls.
# What was measured:
# Cytochrome P450 2C9 = Cytochrome P450 2C9 (Homo sapiens, UniProt P11712)
# Cytochrome P450 2D6 = Cytochrome P450 2D6 (Homo sapiens, UniProt P10635);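 note: CYP2D6 member of a cytochrome P450 panel assay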
# [1] = target: Peroxisome proliferator-activated receptor gamma/Nuclear receptor coactivator 2 (Homo sapiens, UniProt P37231); assay: (§1) TR-FRET dose response biochemical High Throughput Screening assay for agonists of the steroid receptor coactivator 2 (SRC-2) recruitment by the peroxisome proliferator-activated receptor gamma (PPAR gamma): non-selective agonists. [Related pubchem assays: 1297, 1032 ]; format: functional
# [2] = target: Peroxisome proliferator-activated receptor gamma/Nuclear receptor coactivator 1 (Homo sapiens, UniProt P37231); assay: as §1, with “1 (SRC-1)” for “2 (SRC-2)”, “assays (depositor defined):AID1300, AID1808, AID504735, AID631]” for “assays: 1297, 1032 ]”; format: protein assay
# [3] = target: Peroxisome proliferator-activated receptor gamma/Nuclear receptor coactivator 3 (Homo sapiens, UniProt P37231); assay: as §1, with “3 (SRC-3)” for “2 (SRC-2)”, “1301 (Confirmation screen.), 1048 (Primary screen.)]” for “1297, 1032 ]”; format: functional
# [4] = target: T1, Calpain-2 catalytic subunit (Sus scrofa, UniProt P43367); assay: m-calpain protease blockers, concentration series – biochemical, fluorogenic peptide substrate, dose response (AID 1420); format: functional
# T1 sequence (P43367 whole entry): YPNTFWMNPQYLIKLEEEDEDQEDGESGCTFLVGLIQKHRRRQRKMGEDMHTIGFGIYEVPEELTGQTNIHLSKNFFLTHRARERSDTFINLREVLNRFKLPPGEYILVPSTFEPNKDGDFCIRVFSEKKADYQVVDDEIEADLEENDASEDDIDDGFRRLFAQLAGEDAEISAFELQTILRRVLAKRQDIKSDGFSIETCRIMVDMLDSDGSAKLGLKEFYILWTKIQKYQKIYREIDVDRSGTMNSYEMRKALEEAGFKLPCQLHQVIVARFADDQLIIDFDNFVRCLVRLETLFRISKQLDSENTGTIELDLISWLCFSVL
# Cytochrome P450 2C19 = Cytochrome P450 2C19 (Homo sapiens, UniProt P33261); assay: Cytochrome panel assay with activity outcomes. Panel member name: p450-cyp2c19 Compounds with AC50 equal or less than 10 uM are considered active; format: functional; settings: read-out: AC50
# [5] = target: T2, Replicative DNA helicase DnaB (Mycobacterium tuberculosis, UniProt P9WMR3); assay: DnaB intein splicing inhibitors, dose response, biochemical, cell-free fluorescence (AID 449749); format: functional
# T2 sequence (P9WMR3 whole entry): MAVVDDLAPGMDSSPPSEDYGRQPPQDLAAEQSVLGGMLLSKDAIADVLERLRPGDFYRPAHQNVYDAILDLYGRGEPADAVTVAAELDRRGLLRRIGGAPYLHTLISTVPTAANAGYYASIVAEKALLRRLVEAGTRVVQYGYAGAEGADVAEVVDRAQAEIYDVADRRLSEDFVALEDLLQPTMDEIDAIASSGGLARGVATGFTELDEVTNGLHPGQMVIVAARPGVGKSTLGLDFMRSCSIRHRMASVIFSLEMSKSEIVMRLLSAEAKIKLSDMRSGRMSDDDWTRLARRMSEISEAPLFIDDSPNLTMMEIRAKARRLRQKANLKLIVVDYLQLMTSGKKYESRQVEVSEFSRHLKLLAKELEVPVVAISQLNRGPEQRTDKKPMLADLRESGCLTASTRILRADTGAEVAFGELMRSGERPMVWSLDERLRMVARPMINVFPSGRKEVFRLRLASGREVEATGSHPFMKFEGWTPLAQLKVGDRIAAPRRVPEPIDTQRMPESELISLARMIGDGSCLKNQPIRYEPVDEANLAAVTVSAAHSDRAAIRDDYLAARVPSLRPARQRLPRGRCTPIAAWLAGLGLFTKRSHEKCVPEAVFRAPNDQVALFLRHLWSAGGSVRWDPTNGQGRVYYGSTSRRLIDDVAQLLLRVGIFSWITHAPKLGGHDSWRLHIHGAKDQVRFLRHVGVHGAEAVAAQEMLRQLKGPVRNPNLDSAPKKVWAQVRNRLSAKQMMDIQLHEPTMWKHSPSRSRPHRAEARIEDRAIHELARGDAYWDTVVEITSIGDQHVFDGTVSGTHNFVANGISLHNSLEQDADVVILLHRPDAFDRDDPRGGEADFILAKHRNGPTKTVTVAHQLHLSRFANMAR
# Protein RecA = target: T3, Protein RecA (Mycobacterium tuberculosis, UniProt P9WHJ3); assay: Fluorescence Cell-Free Homogeneous Dose Retest to Identify Inhibitors of RecA-Intein Splicing Activity. [Related pubchem assays (depositor defined):AID2097, AID2223, AID489010, AID492950]; format: functional
# T3 sequence (P9WHJ3 whole entry): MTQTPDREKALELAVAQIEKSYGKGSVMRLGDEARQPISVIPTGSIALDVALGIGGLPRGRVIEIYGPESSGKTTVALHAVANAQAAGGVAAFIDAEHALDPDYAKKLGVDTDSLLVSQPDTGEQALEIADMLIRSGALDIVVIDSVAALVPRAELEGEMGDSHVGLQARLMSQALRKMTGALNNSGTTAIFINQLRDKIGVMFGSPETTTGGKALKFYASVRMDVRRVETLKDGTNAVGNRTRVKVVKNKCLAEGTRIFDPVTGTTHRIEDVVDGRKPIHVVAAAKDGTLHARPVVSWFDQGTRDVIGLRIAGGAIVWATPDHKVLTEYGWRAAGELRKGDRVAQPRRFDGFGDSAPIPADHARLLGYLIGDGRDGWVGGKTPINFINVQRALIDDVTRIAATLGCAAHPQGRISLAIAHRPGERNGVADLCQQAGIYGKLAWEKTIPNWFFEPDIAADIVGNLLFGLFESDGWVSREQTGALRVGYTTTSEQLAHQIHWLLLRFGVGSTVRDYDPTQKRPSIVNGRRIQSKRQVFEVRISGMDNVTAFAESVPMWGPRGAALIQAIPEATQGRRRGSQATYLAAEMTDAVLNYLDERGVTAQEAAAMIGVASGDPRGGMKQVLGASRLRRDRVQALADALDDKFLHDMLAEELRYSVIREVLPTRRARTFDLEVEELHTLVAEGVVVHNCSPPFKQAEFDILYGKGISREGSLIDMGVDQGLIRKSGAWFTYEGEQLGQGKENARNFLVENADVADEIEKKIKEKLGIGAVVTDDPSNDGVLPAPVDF
# Leucine aminopeptidase = target: T4, Leucine aminopeptidase (Plasmodium falciparum 3D7, UniProt Q8IL11); assay: P. falciparum M17LAP inhibitors, primary screen, biochemical, fluorogenic H-Leu-NHMec substrate, 1536-well (AID 1619); format: functional
# T4 sequence (Q8IL11 whole entry): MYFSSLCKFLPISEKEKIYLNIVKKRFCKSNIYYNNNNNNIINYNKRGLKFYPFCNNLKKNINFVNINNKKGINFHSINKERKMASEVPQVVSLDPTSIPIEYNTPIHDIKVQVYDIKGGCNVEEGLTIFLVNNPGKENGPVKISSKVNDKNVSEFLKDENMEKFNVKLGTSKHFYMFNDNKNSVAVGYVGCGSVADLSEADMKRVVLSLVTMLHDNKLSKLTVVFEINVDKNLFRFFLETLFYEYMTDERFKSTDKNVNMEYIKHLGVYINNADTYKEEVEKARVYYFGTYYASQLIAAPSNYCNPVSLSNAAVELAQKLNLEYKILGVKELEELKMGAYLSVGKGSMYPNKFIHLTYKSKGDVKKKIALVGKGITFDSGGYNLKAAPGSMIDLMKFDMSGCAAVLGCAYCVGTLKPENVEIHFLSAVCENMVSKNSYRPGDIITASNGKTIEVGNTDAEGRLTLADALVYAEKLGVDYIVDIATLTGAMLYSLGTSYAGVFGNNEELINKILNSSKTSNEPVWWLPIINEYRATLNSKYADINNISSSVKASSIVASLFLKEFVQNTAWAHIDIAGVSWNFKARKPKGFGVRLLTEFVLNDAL
# [6] = target: T5, Polyadenylate-binding protein 1 (Homo sapiens, UniProt P11940); assay: MLLE binding blockers, Cy5 peptide tracer – biochemical, fluorescence polarization, Cy5-PAM2 peptide, secondary, miRNA deadenylation inhibitor project, dose response (AID 602260); format: functional; settings: read-out: IC50_Mean
# [7] = target: T5, Polyadenylate-binding protein 1; assay: MLLE domain peptide-binding blockers, IC50 – biochemical, fluorescence polarization, FITC-PAM2 peptide, dose response (AID 602259); format: functional; settings: read-out: IC50_Mean
# Cytochrome P450 1A2 = target: T6, Cytochrome P450 1A2 (Homo sapiens, UniProt P05177);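 note: PubChem cytochrome P450 panel assay, CYP1A2 panel member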
# T6 sequence (P05177 whole entry): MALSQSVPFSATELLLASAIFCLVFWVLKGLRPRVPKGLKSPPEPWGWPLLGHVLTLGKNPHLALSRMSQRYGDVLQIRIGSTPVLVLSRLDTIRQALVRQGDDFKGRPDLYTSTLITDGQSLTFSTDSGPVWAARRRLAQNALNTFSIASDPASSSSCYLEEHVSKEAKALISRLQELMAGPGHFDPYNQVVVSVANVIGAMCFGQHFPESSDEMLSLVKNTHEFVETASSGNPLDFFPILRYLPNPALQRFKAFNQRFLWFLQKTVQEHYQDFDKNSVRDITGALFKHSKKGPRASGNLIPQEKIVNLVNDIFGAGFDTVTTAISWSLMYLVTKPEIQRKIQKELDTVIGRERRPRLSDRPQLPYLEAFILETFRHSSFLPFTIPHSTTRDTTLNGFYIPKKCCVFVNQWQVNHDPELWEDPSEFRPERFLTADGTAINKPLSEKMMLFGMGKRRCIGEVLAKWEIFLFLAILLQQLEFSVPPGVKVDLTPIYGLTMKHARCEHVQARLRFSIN
# [8] = Luminescence Cell-Based Dose Retest to Confirm Inhibitors of Cancer Stem Cells. [Related pubchem assays (depositor defined):AID2717, AID2721]; format: functional; settings: Homo sapiens
# [9] = target: Heat shock protein HSP 90-alpha (Homo sapiens, UniProt P07900); format: functional, organism-based
# [10] = NIH-3T3 fibroblast cytotoxicity, dose response, cytotoxicity control, cell-based, fluorescence, Alamar Blue, secondary assay (AID 2327); format: functional;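 note: NIH-3T3 mouse fibroblasts cultured with fluconazole at 8 µg/mL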
# Streptococcus = assay: GAS UMAA2166 growth inhibition – luminescence, BacTiterGlo, counter-screen for streptokinase expression inhibitor project, dose response (AID 1915); format: functional, organism-based;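 note: potency for reduction of bacterial viability or growth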
# [11] = test system: Streptococcus sp. 'group A'; assay: Streptococcus pyogenes SK(-)GAS viability under kanamycin – luminescence, BacTiterGlo, confirmation, counter-screen for streptokinase expression inhibitor project, dose response (AID 1900); format: functional, organism-based
# [12] = fluconazole-exposed Candida albicans growth modulators – fluorescence, retest, confirmation (AID 2467); format: functional, cell-based
# Sequence of Peroxisome proliferator-activated receptor gamma/Nuclear receptor coactivator 2 (P37231 whole entry): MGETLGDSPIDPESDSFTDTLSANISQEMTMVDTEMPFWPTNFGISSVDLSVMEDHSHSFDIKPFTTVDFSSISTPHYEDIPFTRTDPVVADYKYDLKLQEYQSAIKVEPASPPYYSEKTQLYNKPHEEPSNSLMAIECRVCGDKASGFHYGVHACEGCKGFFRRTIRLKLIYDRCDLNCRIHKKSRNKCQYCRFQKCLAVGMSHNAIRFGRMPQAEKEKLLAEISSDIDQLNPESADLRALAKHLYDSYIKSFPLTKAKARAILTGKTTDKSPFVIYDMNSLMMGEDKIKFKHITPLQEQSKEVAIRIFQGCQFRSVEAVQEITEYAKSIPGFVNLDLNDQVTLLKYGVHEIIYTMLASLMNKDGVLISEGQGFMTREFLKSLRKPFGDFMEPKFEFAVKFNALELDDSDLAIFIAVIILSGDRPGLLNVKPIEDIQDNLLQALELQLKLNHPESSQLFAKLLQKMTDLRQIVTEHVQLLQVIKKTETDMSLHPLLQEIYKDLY
# Sequence of Peroxisome proliferator-activated receptor gamma/Nuclear receptor coactivator 2 (Q15596 whole entry, further chain): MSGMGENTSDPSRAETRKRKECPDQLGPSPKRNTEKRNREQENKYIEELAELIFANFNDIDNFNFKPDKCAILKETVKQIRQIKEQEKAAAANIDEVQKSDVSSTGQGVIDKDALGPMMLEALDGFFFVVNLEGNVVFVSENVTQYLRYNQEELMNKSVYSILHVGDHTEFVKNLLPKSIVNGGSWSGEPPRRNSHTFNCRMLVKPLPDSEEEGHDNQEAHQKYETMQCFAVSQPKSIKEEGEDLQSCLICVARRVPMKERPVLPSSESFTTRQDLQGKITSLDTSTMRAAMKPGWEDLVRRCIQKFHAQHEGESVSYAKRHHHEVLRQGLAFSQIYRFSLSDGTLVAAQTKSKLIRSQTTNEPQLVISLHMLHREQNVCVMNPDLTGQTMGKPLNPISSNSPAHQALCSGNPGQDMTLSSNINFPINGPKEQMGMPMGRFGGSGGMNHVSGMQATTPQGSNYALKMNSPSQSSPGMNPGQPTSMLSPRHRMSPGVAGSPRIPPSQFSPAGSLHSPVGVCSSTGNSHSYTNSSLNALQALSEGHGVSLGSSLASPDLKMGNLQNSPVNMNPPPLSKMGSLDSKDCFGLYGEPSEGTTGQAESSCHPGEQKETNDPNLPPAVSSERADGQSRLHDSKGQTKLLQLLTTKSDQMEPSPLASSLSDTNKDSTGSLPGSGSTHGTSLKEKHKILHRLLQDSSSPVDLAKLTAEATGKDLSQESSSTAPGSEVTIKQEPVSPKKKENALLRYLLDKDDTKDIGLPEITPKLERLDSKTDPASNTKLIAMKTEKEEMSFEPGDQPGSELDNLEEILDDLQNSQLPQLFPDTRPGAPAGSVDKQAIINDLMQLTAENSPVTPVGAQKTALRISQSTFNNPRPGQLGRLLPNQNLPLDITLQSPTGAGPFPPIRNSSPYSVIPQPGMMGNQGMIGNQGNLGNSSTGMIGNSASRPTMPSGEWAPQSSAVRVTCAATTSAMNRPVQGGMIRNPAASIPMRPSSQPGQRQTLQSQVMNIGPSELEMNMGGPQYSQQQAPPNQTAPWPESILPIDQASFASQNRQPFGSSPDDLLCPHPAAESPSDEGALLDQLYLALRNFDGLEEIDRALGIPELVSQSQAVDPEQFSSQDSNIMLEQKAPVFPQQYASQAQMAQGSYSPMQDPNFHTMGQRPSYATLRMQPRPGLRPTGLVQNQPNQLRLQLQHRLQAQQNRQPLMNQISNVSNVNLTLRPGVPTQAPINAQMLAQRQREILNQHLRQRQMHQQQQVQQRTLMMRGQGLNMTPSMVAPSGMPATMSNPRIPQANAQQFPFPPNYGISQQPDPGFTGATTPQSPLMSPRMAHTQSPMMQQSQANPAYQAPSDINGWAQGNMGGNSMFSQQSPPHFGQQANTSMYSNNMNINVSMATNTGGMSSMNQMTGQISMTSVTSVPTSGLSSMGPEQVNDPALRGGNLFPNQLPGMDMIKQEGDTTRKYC
# Sequence of Peroxisome proliferator-activated receptor gamma/Nuclear receptor coactivator 1 (P37231 whole entry): as the sequence (P37231 whole entry) above
# Sequence of Peroxisome proliferator-activated receptor gamma/Nuclear receptor coactivator 1 (Q15788 whole entry, further chain): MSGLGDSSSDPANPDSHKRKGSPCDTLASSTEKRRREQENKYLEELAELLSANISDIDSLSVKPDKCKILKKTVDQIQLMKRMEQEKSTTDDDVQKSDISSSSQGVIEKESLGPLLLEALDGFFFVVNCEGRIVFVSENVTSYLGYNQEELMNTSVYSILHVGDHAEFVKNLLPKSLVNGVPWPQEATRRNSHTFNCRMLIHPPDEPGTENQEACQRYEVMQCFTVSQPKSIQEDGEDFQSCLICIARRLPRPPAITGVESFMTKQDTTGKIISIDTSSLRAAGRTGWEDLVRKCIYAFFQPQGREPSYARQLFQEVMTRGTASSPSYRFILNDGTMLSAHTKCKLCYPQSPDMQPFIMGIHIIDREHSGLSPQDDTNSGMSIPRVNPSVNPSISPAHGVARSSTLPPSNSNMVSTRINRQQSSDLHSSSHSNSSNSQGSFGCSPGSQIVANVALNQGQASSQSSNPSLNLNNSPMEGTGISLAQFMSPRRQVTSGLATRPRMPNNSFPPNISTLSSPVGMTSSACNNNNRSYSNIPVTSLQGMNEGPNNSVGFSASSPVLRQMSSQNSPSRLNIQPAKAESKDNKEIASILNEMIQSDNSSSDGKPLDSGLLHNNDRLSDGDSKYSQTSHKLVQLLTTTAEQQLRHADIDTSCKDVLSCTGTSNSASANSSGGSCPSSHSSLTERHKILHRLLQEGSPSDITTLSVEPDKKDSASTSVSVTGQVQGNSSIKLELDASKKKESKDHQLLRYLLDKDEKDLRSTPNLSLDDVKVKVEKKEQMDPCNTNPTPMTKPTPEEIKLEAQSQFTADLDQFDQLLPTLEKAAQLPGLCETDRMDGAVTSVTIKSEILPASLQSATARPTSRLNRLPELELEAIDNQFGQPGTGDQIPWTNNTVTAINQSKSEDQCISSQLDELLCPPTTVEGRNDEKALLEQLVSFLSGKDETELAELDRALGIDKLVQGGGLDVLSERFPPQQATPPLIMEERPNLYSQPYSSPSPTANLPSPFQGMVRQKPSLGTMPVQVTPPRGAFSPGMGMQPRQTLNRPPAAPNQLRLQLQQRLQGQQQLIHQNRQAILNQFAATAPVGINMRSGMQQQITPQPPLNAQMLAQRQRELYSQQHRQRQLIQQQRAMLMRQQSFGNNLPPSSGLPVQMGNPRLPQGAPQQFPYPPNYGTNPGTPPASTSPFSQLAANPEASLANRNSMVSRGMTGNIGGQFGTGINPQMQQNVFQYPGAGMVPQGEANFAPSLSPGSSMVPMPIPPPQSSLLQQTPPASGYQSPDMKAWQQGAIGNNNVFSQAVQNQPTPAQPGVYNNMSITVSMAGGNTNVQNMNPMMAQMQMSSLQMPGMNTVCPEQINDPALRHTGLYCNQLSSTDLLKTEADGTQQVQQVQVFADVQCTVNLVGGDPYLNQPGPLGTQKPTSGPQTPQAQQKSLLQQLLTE
# Sequence of Cytochrome P450 2C9 (P11712 whole entry): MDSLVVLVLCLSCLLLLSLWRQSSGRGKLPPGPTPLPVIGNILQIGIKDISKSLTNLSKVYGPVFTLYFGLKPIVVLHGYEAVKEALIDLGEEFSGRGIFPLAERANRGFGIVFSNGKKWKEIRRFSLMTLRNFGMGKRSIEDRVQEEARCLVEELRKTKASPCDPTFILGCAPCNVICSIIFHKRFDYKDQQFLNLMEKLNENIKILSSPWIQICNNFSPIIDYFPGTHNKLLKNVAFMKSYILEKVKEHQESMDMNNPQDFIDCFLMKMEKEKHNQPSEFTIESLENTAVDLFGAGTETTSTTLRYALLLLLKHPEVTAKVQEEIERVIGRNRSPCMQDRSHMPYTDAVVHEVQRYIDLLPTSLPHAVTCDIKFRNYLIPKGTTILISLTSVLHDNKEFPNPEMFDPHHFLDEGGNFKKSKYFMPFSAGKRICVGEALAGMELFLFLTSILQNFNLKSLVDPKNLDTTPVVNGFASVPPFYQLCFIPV
# T5 sequence (P11940 whole entry, the tested form may be a part): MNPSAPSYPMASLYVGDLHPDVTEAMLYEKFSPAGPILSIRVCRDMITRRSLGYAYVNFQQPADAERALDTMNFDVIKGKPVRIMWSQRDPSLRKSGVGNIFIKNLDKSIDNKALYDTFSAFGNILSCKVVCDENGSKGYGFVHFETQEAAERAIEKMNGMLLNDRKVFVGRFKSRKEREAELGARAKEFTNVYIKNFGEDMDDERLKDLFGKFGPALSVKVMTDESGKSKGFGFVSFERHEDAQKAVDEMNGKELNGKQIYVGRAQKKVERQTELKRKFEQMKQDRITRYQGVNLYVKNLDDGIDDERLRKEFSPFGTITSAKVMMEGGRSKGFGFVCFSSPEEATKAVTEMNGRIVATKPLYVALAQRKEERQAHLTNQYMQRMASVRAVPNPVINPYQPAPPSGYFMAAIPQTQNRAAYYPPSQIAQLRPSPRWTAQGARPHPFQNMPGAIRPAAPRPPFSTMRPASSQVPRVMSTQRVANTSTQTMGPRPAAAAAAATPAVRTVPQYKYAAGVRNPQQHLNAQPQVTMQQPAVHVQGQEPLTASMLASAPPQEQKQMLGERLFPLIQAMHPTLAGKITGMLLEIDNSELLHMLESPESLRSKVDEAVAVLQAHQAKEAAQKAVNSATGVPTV
compound,measurement,setting,value
Cc1ccc(OCCCn2c(=O)sc3ccccc32)cc1,AC50,Cytochrome P450 2C9,inconclusive
same,AC50,Cytochrome P450 2D6,14.1 µM (inconclusive)
COc1ccc(CNC(=O)CSc2cc(=O)n(C)c3ccccc23)cc1,EC50,[1],> 79.4 µM (not active)
same,EC50,[2],> 79.4 µM (inactive)
same,EC50,[3],> 79.4 µM (not active)
COC(=O)c1ccc(N2C(=O)C3CC(C)=C(C)CC3C2=O)cc1 (configuration not stated),IC50,[4],10.9 µM (not active)
O=C(Nc1nc(-c2ccc(Cl)cc2)cs1)C1CCCO1 (configuration not stated),IC50,[4],19.1 µM (not active)
O=C(Nc1ccc(N=Nc2ccccc2)cc1)c1ccc(Cl)cc1Cl,AC50,Cytochrome P450 2C9,inconclusive
same,AC50,Cytochrome P450 2C19,39.8 µM (inconclusive)
O=C(CCOc1ccccc1)Nc1ccc(S(=O)(=O)N2CCCC2)cc1,IC50,[4],26.4 µM (not active)
O=c1oc2cc(Oc3c([N+](=O)[O-])cc(C(F)(F)F)cc3[N+](=O)[O-])ccc2c2c1CCCC2,AC50,[5],> 380 µM (inactive)
same,AC50,Cytochrome P450 2C9,inconclusive
same,EC50,Protein RecA,1.55 µM (active)
same,AC50,Cytochrome P450 2D6,11.2 µM (inconclusive)
O=C(COC(=O)CCc1ccccc1)NC12CC3CC(CC(C3)C1)C2,IC50,[4],19.6 µM (not active)
O=C(Cc1ccccc1)Nc1nnc(-c2ccco2)s1,EC50,[1],> 79.4 µM (not active)
same,EC50,[2],> 79.4 µM (inactive)
same,EC50,[3],> 79.4 µM (not active)
COc1ccc2sc(N3C(=O)C4CC=C(C)CC4C3=O)nc2c1 (configuration not stated),IC50,Leucine aminopeptidase,35 µM (active)
COc1ccc(NC(=O)c2ccc(=O)oc2)cc1,IC50,[4],11.5 µM (not active)
CCOc1ccc(Nc2nc(Cc3nnc(SCC(=O)NCc4ccco4)n3CC)cs2)cc1,IC50,Leucine aminopeptidase,28.1 µM (active)
CCN(CC)S(=O)(=O)c1ccc(C(=O)NCc2ccc3c(c2)cc(C)n3C)cc1,EC50,[1],6.71 µM (active)
same,EC50,[2],6.6 µM (active)
same,IC50,[6],> 66 µM (inactive)
same,IC50,[7],> 66 µM (inactive)
same,EC50,[3],15.3 µM (not active)
CC1=CC=CN2CC(O)CN=C12.Cl (configuration not stated),AC50,Cytochrome P450 2C9,inconclusive
Cc1c(Br)cc(C(=O)NC2CCCCC2)c(C)c1C,AC50,Cytochrome P450 2C9,inconclusive
same,AC50,Cytochrome P450 1A2,3.55 µM (inconclusive)
Cc1cc(O)nc(SCC(=O)Nc2ccc(F)cc2)c1C#N,IC50,Leucine aminopeptidase,4.1 µM (active)
COCCCn1c(=S)[nH]c2sc3c(c2c1=O)CCCS3,EC50,[1],26.7 µM (not active)
same,EC50,[2],66.8 µM (inactive)
same,EC50,[3],> 79.4 µM (not active)
COc1ccc2sc(-c3ccccc3OC)c(-c3ccc(O)cc3)c2c1,AC50,[8],4.27 µM (active)
same,AC50,[9],5.35 µM (active)
COc1ccc(C2=NN(C(=N)S)C(c3ccccc3)C2)cc1 (configuration not stated),EC50,[1],8.07 µM (active)
same,EC50,[2],8.24 µM (active)
same,EC50,[3],> 79.4 µM (not active)
Cc1cccc(C)c1OCC(=O)NNC(=S)NC(=O)C1CC1,EC50,[10],> 160 µM (inactive)
same,EC50,Streptococcus,7.38 µM (active)
same,EC50,[11],0.412 µM (active)
same,EC50,[12],1.66 µM (active)
same,AC50,[9],1.15 µM (active)
COCC(=O)n1nc(NCc2ccc(OC)cc2)nc1NCc1ccc(OC)cc1,AC50,[9],8.12 µM (active)
Cc1cc(NC(=O)CSc2nnc(-c3ccncc3)n2N)ccc1Br,IC50,[4],> 50 µM (not active)
O=C/C(=N\Nc1ccccc1)C(=O)c1ccc(Cl)cc1,AC50,[9],3.15 µM (active)
CCOc1ccc(N2C(=O)/C(=C\c3ccccc3OC)S(=O)(=O)C2c2cccc([N+](=O)[O-])c2)cc1 (configuration not stated),AC50,[9],26.2 µM (active)
